In patent US9404933B2, “Methods for determining patient response to anti-platelet aggregation therapy” (INVITROX, INC., priority 2011, dated 2016):
Like-named read-outs stand apart in the source and are kept apart here.

Assays:
[1] = test system: ADP-induced platelet aggregation; details: cited from earlier work; for inhibition of platelet aggregation: patients with ischaemic heart disease, measured at 4 min after addition of 10 μM ADP
human platelets = test: Focused light scattering size distribution of platelets and microparticles after activation; format: cell-based; details: normal resting human platelets versus activated; FIG. 8 / FIG. 9
Source text: FIG. 8 is a chart showing the result of the activation of platelets using thrombin receptor activating peptide (TRAP), where platelets are enlarged when activated, and also give off microparticles (MPs).
FIG. 9 is a chart showing the result of the activation of platelets using a calcium ionophore, which destroys platelets, and also causes the platelets to give off microparticles (MPs). Treated and untreated platelet size distributions are shown. What is observed is as the number of platelets decreases, the number of MPs increases.
The ionophore basically destroys the platelet to produce many more MPs. Treated and untreated platelet size distributions are shown. What is observed is as the number of platelets decreases, the number of MPs increases.

[2] = in vivo; cited from earlier work
[3] = test system: P2Y12-dependent platelet function; details: added in vitro to blood from clopidogrel treated patients; cited from earlier work

COC(=O)[C@H](c1ccccc1Cl)N1CCc2sccc2C1 [Plavix, clopidogrel bisulfate]
delayed onset of action ([1]; loading dose of 300-600 mg): two to five
inhibition of platelet aggregation ([1]; 4 to 7 days treatment): approximately 60%

CC(=O)Oc1cc2c(s1)CCN(C(C(=O)C1CC1)c1ccccc1F)C2 (stereo not drawn) [Prasugrel, 2-acetoxy-5-[alpha-cyclopropylcarbonyl-2-fluorobenzyl]-4,5,6,7-tetrahydrothieno[3,2-c]pyridine]
inhibition of ADP-induced platelet aggregation ([1]; cross-over study, 60 mg loading dose, also in subjects who responded poorly to a standard loading dose of Clopidogrel): rapid and highgrade, irreversible inhibition

CNc1ccc2oc(C[C@H]3O[C@@]4(CC[C@H]3C)O[C@H]([C@H](C)C(=O)c3ccc[nH]3)[C@H](C)C[C@H]4C)nc2c1C(=O)O [calcium ionophore]
microparticles (MPs) formed on activation of platelets (human platelets): many more MPs

CSCCNc1nc(SCCC(F)(F)F)nc2c1ncn2[C@@H]1O[C@H](COP(=O)(O)OP(=O)(O)C(Cl)(Cl)P(=O)(O)O)[C@@H](O)[C@H]1O [cangrelor]
inhibition of platelet aggregation ([1]; infusion at 2 and 4 μg/mL/min): near complete inhibition
half-life [2]: 2.6 min
inhibition of P2Y12-dependent platelet function [3]: near complete inhibition
